Test results taken from ChEMBL document CHEMBL1201862, “PubChem BioAssay data set” (2004).
Active and inactive are the calls of the source. Rule as the data show it, for most assays here: actives have a measured EC50 and inactives only a lower limit.

What was measured:
[1] = miR-122 activators in hepatoma reporter cells, dose response, cell-based, Huh7 psiCHECK-miR122, Renilla luciferase, cherry-picked (AID 651956); type: functional;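 also: huh7 hepatoma cells stably carrying a psiCHECK-2 miR-122 sensor plasmid; renilla luciferase signal reporting endogenous miR-122 activity after 48 h compound exposure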
BJ [2] = assay: cytotoxicity toward BJ-TERT fibroblasts, dose response, cell-based, RAS-independent, luminescence (AID 1933); type: functional; conditions: Homo sapiens
H4 = assay: Luminescence Cell-Based Dose Response HTS to Identify Activators of 5'UTR Stem-Loop Driven Prion Protein mRNA Translation in H4 Neuroglioblastoma Cells. [Related pubchem assays: 1829 (Project Summary), 1814 (Primary HTS)]; type: functional; conditions: Homo sapiens
[3] = Luminescence Cell-Based Dose Confirmation HTS to Identify Activators of 5'UTR Stem-Loop Driven Alpha-Synuclein mRNA Translation in H4 Neuroglioblastoma Cells. [Related pubchem assays: 1829 (Project Summary), 1814 (Primary HTS)]; type: functional
[4] = MDA-MB-231 cell growth inhibition, dose response, cytotoxicity control for RAD54 inhibitor project, CellTiter-Glo luminescence, cherry-pick (AID 651692); type: functional, cell-based
[5] = biological target: T1, DNA repair protein RAD52 homolog (Homo sapiens, UniProt P43351); type: functional, biochemical
T1 sequence (P43351 whole entry): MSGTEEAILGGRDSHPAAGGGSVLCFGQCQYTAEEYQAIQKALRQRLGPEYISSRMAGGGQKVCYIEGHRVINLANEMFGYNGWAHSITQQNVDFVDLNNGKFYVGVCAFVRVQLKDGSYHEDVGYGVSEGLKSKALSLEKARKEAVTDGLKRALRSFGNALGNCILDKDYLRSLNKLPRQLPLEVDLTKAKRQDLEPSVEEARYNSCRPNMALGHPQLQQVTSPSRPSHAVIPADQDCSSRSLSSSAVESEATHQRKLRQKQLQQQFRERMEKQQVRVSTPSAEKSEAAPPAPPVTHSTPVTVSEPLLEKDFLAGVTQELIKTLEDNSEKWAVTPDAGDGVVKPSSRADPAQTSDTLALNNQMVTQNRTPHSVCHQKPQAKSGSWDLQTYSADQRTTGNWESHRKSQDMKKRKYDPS

[6] = cytotoxicity toward DRD oncogenic fibroblasts, dose response, cell-based, non-viral oncogenic, luminescence (AID 1934); type: functional; conditions: Homo sapiens
[7] = Luminescence Cell-Based Dose Response HTS to Identify Activators of Luciferase Translation or Activity in H4 […] Cells. [Related pubchem assays: 1829 (Project Summary), 1814 (Primary HTS)]; type: functional
[8] = biological target: DNA repair and recombination protein RAD54-like (Homo sapiens, UniProt Q92698); assay: inhibitors of human RAD54 branch migration, confirmation, biochemical, fluorescence, cherry-picked samples, dose series (AID 651657); type: functional
Chain of DNA repair and recombination protein RAD54-like (Q92698 whole entry): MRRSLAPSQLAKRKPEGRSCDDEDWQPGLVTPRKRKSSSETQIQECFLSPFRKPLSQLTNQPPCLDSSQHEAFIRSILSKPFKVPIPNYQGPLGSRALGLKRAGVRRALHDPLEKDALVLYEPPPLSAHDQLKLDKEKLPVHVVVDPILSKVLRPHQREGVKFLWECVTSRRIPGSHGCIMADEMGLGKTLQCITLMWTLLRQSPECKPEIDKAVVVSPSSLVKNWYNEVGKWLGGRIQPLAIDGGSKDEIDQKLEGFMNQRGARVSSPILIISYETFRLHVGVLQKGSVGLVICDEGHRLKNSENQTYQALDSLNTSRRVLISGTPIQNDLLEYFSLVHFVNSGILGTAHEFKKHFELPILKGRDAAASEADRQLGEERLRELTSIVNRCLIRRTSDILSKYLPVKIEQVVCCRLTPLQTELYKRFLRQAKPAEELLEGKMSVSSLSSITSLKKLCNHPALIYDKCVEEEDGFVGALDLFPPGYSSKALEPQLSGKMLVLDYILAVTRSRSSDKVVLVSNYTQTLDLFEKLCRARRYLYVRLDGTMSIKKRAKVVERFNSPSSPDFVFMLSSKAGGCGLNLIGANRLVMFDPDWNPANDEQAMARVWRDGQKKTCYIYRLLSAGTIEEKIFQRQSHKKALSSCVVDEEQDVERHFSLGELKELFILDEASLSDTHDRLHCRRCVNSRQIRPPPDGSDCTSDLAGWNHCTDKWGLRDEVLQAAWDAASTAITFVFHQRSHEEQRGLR

cells [9] = type: functional, cell-based
[10] = cytotoxicity toward NIH3T3 fibroblasts, dose response, counter-screen, cell-based, ATP luminescence, mouse fibroblasts (AID 2010); type: functional;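 also: cells exposed to compound for about 90 hours before reading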
BJ [11] = assay: cells; type: functional, cell-based; conditions: Homo sapiens
BJ [12] = assay: cytotoxicity toward BJ-TERT-LT-ST fibroblasts, dose response, cell-based, RAS-independent, luminescence (AID 1935); type: functional; conditions: Homo sapiens;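 also: BJ fibroblasts immortalized with TERT plus LT and ST oncogenes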
cells [13] = type: functional, cell-based; remark: listed apart in the source
[14] = inhibitors of intracellular T. cruzi replication, confirmation, NIH3T3 host cells, beta-gal luminescence (AID 2044); type: functional, cell-based;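 also: intracellular parasites grown in NIH/3T3 mouse fibroblasts as host cells; luminescent beta-galactosidase reporter signal from transgenic T. cruzi replicating inside host cells; inhibitors lower the luminescence signal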
[15] = biological target: Voltage-gated inwardly rectifying potassium channel KCNH2 (Homo sapiens, UniProt Q12809); conditions: Potency;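 also: confirmatory quantitative high-throughput screen measuring inhibition of hERG channel activity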
Chain of Voltage-gated inwardly rectifying potassium channel KCNH2 (Q12809 whole entry): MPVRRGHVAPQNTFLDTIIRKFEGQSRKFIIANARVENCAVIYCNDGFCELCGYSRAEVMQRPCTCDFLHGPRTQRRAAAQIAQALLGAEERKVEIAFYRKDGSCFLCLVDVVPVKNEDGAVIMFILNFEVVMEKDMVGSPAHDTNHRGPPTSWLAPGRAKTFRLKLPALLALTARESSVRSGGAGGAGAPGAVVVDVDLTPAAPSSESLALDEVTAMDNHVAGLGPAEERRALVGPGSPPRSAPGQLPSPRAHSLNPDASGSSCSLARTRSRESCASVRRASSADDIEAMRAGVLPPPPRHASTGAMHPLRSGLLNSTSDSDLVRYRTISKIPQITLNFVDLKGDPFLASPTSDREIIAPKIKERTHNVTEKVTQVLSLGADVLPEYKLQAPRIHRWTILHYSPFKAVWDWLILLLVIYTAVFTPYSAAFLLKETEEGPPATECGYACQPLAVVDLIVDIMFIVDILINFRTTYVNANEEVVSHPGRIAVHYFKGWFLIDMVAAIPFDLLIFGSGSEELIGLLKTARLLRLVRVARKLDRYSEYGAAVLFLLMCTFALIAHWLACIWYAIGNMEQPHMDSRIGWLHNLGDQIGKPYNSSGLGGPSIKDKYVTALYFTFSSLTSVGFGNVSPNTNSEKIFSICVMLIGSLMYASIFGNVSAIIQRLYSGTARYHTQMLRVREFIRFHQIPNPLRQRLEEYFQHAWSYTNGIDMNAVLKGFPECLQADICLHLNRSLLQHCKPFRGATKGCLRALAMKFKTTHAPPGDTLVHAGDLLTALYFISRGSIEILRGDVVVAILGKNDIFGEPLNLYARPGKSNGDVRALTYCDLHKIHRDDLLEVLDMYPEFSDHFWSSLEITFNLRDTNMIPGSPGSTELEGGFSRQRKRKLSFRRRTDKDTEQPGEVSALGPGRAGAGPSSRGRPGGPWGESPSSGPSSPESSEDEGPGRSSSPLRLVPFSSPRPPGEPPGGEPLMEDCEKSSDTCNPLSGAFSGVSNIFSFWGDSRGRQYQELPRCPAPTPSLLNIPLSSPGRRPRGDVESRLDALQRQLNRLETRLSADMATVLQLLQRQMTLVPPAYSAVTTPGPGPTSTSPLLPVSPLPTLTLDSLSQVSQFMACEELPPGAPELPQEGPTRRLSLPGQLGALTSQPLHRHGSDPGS

Mu-type opioid receptor = Mu-type opioid receptor (Homo sapiens, UniProt P35372); type: functional, cell-based;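 also: U2OS cells with beta-arrestin recruitment to OPRM1 by beta-gal complementation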
Chain of Mu-type opioid receptor (P35372 whole entry): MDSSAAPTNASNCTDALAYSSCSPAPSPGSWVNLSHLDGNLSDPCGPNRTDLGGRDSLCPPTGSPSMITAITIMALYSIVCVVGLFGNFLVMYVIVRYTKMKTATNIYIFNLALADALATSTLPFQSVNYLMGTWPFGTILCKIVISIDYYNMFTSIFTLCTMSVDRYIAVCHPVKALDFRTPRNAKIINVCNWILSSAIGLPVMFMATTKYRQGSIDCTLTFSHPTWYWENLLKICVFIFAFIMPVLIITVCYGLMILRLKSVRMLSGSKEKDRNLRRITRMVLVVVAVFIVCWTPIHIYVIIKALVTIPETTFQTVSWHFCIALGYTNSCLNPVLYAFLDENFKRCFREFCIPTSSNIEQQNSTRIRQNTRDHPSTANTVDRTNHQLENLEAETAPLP

[16] = biological target: 5-hydroxytryptamine receptor 2A (Mus musculus, UniProt P35363); type: functional, cell-based;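 also: CHO-K1 cells with tagged receptor and beta-arrestin; agonist potency measured as compound-induced activation of the receptor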
Chain of 5-hydroxytryptamine receptor 2A (P35363 whole entry): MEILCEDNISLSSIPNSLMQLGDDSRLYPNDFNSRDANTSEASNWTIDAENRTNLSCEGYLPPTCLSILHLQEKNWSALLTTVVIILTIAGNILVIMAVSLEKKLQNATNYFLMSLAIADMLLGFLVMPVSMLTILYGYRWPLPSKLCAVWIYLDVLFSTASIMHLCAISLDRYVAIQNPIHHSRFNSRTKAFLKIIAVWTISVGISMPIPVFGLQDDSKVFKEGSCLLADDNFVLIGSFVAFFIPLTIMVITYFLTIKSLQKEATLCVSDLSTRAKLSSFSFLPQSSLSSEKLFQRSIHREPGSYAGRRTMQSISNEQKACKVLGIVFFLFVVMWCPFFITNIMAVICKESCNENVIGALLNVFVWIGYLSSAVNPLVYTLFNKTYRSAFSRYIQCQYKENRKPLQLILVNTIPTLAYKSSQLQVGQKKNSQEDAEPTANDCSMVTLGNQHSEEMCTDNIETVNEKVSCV

[17] = biological target: T2, Corticotropin-releasing factor receptor 2/Corticotropin-releasing factor-binding protein (Homo sapiens, UniProt P24387+Q13324); assay: activators of CRF receptor 2 with binding protein – uHTS hits, confirmation (AID 602473); type: functional; conditions: read-out: EC50_Mean
T2 sequence (Q13324 whole entry): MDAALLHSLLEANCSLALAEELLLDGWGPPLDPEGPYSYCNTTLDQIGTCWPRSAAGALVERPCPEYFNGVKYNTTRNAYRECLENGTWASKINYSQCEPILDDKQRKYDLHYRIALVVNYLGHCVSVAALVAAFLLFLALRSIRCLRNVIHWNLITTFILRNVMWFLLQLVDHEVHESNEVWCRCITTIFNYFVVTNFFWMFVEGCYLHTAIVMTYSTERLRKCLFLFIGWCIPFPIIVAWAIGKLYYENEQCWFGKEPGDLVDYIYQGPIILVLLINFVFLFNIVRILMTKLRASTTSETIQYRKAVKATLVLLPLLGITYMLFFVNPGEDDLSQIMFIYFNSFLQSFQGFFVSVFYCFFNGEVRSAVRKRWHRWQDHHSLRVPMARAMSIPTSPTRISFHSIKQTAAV
T2 sequence (P24387 whole entry): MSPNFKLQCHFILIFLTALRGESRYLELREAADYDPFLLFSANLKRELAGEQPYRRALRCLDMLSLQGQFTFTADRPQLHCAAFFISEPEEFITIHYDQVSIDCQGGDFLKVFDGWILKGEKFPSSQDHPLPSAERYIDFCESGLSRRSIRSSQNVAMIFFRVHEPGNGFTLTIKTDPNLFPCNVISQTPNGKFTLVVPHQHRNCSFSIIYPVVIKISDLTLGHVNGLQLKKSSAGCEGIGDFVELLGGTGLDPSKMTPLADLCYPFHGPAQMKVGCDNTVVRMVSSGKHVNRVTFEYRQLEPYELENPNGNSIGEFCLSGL

[18] = biological target: T3, Sentrin-specific protease 8 (Homo sapiens, UniProt Q96LD8); type: functional
T3 sequence (Q96LD8 whole entry): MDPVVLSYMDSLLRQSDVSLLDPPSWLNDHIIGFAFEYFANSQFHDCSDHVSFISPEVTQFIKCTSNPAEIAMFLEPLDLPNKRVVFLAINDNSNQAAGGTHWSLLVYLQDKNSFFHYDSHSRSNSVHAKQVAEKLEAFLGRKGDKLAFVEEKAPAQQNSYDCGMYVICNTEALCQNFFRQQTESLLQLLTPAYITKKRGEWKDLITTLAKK

INS1 = assay: beta cell apoptosis inhibitors, cytokine rescue, dose response, luminescence, retest (AID 449756); type: functional, cell-based; conditions: Rattus norvegicus;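 also: cell death triggered by IL-1 beta plus TNF-alpha plus IFN-gamma mixture; protective hits raise ATP signal compared with cytokine alone wells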
[19] = biological target: T3, Sentrin-specific protease 8; type: functional; remark: listed apart in the source

For C/C=C/c1ccc([C@H]2[C@H](CO)N[C@H]2CN(CC(C)C)C(=O)c2ccccn2)cc1, the AC50 [1] was 5.62 µM (active).

In the case of c1ccc2c(NCCc3c[nH]c4ccccc34)c3ccccc3nc2c1, the EC50 (BJ [2]) is reported as 4.9 µM (active), the EC50 (H4) is reported as > 120 µM (not active) and the EC50 [3] is reported as > 120 µM (not active). The AC50 [4] was 33.1 µM (active), the AC50 [5] was 1.41 µM (active) and the EC50 [6] was 7.86 µM (active). The EC50 [7] was 4.86 µM (active), the AC50 [8] was 3.17 µM (active) and the EC50 (cells [9]) was 29.3 µM (active). For the same molecule, the EC50 [10] was 11.9 µM (active), the EC50 (BJ [11]) was 8.56 µM (inconclusive) and the EC50 (BJ [12]) was 6.42 µM (inconclusive). For the same molecule, the EC50 (cells [13]) was > 350 µM (not active) and the EC50 [14] was 1.43 µM (active).

In the case of CN1CCc2cc(O)c(O)cc2C(c2ccccc2)C1 (configuration not stated), the AC50 [15] is reported as 35.5 µM (inconclusive), the EC50 (Mu-type opioid receptor) is reported as 92.5 µM (inactive) and the EC50 [16] is reported as 1.36 µM (active).

For COc1ccccc1N1C(C)=CC(=C(C#N)c2nc3ccccc3s2)C=C1C, the EC50 [17] was 16.1 µM (active), the IC50 [18] was 9.58 µM (active) and the AC50 (INS1) was 5.19 µM (active). For the same molecule, the IC50 [19] was 4.86 µM (active).
